# According to patent US20100285959A1, “HERBICIDAL MIXTURES” (priority 2006, published 2010):
# Columns and labels:
# [1] = tested on: kochia (KCHSC); assay: Test 21 growth chamber, postemergence; type: in vivo, Kochia scoparia; conditions: 19 DAA
# Description: (§1) A test was conducted to evaluate the effects on winter barley (HORVW, Hordeum vulgare L.), winter wheat (TRZAW, Triticum aestivum L.), and several weed species, of mixtures of Compound 2 with the commercial herbicide (2,4-dichlorophenoxy)acetic acid (2,4-D), an auxin mimic. […] Plants were treated postemergence at the 2-4 leaf growth stage, and each treatment was replicated one time. […] Plants were watered as needed. […] Results are from single replicates.
# [2] = tested on: galium (GALAP); assay: Test 23 growth chamber, postemergence; type: in vivo, Galium aparine; conditions: 21 DAA
# Description: as §1, with “species” for “species,”, “herbicides” for “herbicide”, “(2,4-D) and (4-chloro-2-methylphenoxy)acetic acid (MCPA),” for “(2,4-D), an”, “mimics.” for “mimic.”, “three times.” for “one time.”, “means of the three” for “from single”
# [3] = tested on: winter barley (HORVW); assay: Test 19 growth chamber, postemergence; type: in vivo, Hordeum vulgare
# Description: as §1, with “L.) and” for “L.),”, “L.)” for “L.), and several weed species,”, “3-leaf” for “2-4 leaf”, “four times.” for “one time.”, “the means of the four” for “from single”
# [4] = tested on: common lambsquarters (CHEAL); assay: Test 21 growth chamber, postemergence; type: in vivo, Chenopodium album; conditions: 19 DAA
# Description: as §1
# [5] = tested on: winter wheat (TRZAW); assay: Test 23 growth chamber, postemergence; type: in vivo, Triticum aestivum; conditions: 21 DAA
# Description: as §1, with “species” for “species,”, “herbicides” for “herbicide”, “(2,4-D) and (4-chloro-2-methylphenoxy)acetic acid (MCPA),” for “(2,4-D), an”, “mimics.” for “mimic.”, “three times.” for “one time.”, “means of the three” for “from single”
# [6] = tested on: wild mustard (SINAR); assay: Test 23 growth chamber, postemergence; type: in vivo, Sinapis arvensis; conditions: 21 DAA
# Description: as §1, with “species” for “species,”, “herbicides” for “herbicide”, “(2,4-D) and (4-chloro-2-methylphenoxy)acetic acid (MCPA),” for “(2,4-D), an”, “mimics.” for “mimic.”, “three times.” for “one time.”, “means of the three” for “from single”
# [7] = tested on: wild buckwheat (POLCO); assay: Test 21 growth chamber, postemergence; type: in vivo, Polygonum convolvulus; conditions: 19 DAA
# Description: as §1
# [8] = tested on: kochia (KCHSC); assay: Test 23 growth chamber, postemergence; type: in vivo, Kochia scoparia; conditions: 21 DAA
# Description: as §1, with “species” for “species,”, “herbicides” for “herbicide”, “(2,4-D) and (4-chloro-2-methylphenoxy)acetic acid (MCPA),” for “(2,4-D), an”, “mimics.” for “mimic.”, “three times.” for “one time.”, “means of the three” for “from single”
# [9] = tested on: field violet (VIOAR); assay: Test 23 growth chamber, postemergence; type: in vivo, Viola arvensis; conditions: 21 DAA
# Description: as §1, with “species” for “species,”, “herbicides” for “herbicide”, “(2,4-D) and (4-chloro-2-methylphenoxy)acetic acid (MCPA),” for “(2,4-D), an”, “mimics.” for “mimic.”, “three times.” for “one time.”, “means of the three” for “from single”
# [10] = tested on: prickly lettuce (LACSE); assay: Test 9 field trial, emerged weeds before corn planting; type: in vivo, Lactuca serriola; conditions: g a.i./ha: Cpd 2 100, Glyphosate 1540, Paraquat 1150
# Description: (§2) Corn seeds (hybrid ‘Pioneer 34M91 RR’) were planted in mid spring season, about 3.8 cm deep in a silty clay loam soil having a pH of 6.7. Plots were 9.1 m long by 3.0 m. The field was managed using no-till practices. […] Compound 2 and paraquat treatments, alone and in combination, also included a surfactant. Glyphosate, alone and with Compound 2, included ammonium sulfate in the treatment mixture. […] The effects on the weeds in the treated plots and untreated control plots were recorded 7, 14, 23, 30 and 57 days after application. Most of the weed species could not be evaluated at every timing. Corn response was only evaluated 57 days after application. […] Results are the means of the three replicates.
# [11] = tested on: common chickweed (STEME); assay: as above; type: in vivo, Stellaria media; conditions: g a.i./ha: Cpd 2 100, Glyphosate 1540, Paraquat 1150
# Description: as §2
# [12] = tested on: red deadnettle (LAMPU); assay: as above; type: in vivo, Lamium purpureum; conditions: g a.i./ha: Cpd 2 100, Glyphosate 1540, Paraquat 1150
# Description: as §2
# [13] = tested on: corn (ZEAMD); assay: Test 7 field trial, preemergence; type: in vivo, Zea mays ssp. indentata
# Description: Plots were 7.6 m long by 3.0 m wide with rows spaced 76 cm apart. Seeds were spaced 15 cm apart within the rows. The field was managed using conventional tillage practices. […] Wild radish was evaluated 14 and 28 days after application. […] Results are the means of the three replicates.
# [14] = tested on: velvetleaf (ABUTH); assay: Test 2 field trial, preemergence; type: in vivo, Abutilon theophrasti; set-up: scale not given here
# Source text: Corn seeds (hybrid ‘Pioneer 31G96’) were planted in mid spring season, 3.8 cm deep in a clay loam soil having 2% organic matter and a pH of 6.6. Plots were 6.1 m long by 3.0 m wide with rows spaced 76 cm apart. Seeds were spaced 15 cm apart within the rows. The field was managed using conventional tillage practices. […] A few of the weed species could not be evaluated at every timing. […] Results are the means of the three replicates.
# [15] = 2,4-D or MCPA alone 250 g a.i./ha
# [16] = 18 DAA, g a.i./ha: Cpd 2 25, Atrazine 250
# [17] = 18 DAA, g a.i./ha: Cpd 2 50, Atrazine 500
# [18] = 18 DAA, g a.i./ha: Cpd 2 75, Atrazine 750
# [19] = 18 DAA, g a.i./ha: Cpd 2 100, Atrazine 1000
# [20] = 18 DAA, g a.i./ha: Cpd 2 150, Atrazine 1500
# [21] = 28 DAA, g a.i./ha: Cpd 2 25, Atrazine 250
# [22] = 28 DAA, g a.i./ha: Cpd 2 50, Atrazine 500
# [23] = 28 DAA, g a.i./ha: Cpd 2 75, Atrazine 750
# [24] = 28 DAA, g a.i./ha: Cpd 2 100, Atrazine 1000
# [25] = 28 DAA, g a.i./ha: Cpd 2 150, Atrazine 1500
# [26] = 55 DAA, g a.i./ha: Cpd 2 25, Atrazine 250
# [27] = 55 DAA, g a.i./ha: Cpd 2 50, Atrazine 500
# [28] = 55 DAA, g a.i./ha: Cpd 2 75, Atrazine 750
# [29] = 55 DAA, g a.i./ha: Cpd 2 100, Atrazine 1000
# [30] = 55 DAA, g a.i./ha: Cpd 2 150, Atrazine 1500
smiles,measurement,setting,value
"O=C(O)COc1ccc(Cl)cc1Cl [2,4-D, (2,4-dichlorophenoxy)acetic acid]",Postemergence KCHSC Obs,"[1]; 2,4-D alone 125 g a.i./ha",45
same,Postemergence KCHSC Obs,"[1]; 2,4-D alone 250 g a.i./ha",45
same,Postemergence GALAP Obs,[2]; [15],33
same,HORVW Obs,"[3]; Postemergence, 17 DAA, g a.i./ha: Cpd 2 16, 2,4-D 250",15
same,HORVW Obs,"[3]; Postemergence, 17 DAA, g a.i./ha: Cpd 2 16, 2,4-D 500",5
same,HORVW Obs,"[3]; Postemergence, 17 DAA, g a.i./ha: Cpd 2 16, 2,4-D 1000",10
same,Postemergence CHEAL Obs,"[4]; 2,4-D alone 125 g a.i./ha",40
same,Postemergence CHEAL Obs,"[4]; 2,4-D alone 250 g a.i./ha",40
same,Postemergence TRZAW Obs,[5]; [15],20
same,Postemergence SINAR Obs,[6]; [15],65
same,Postemergence POLCO Obs,"[7]; 2,4-D alone 125 g a.i./ha",20
same,Postemergence POLCO Obs,"[7]; 2,4-D alone 250 g a.i./ha",20
same,Postemergence KCHSC Obs,[8]; [15],70
same,Postemergence VIOAR Obs,[9]; [15],63
O=C(O)CNCP(=O)(O)O [Glyphosate],LACSE Obs,[10]; 7 DAA,45%
same,LACSE Obs,[10]; 14 DAA,87%
same,LACSE Obs,[10]; 23 DAA,99%
same,LACSE Obs,[10]; 30 DAA,100%
same,LACSE Obs,[10]; 57 DAA,100%
same,STEME Obs,[11]; 7 DAA,42%
same,STEME Obs,[11]; 14 DAA,84%
same,STEME Obs,[11]; 23 DAA,93%
same,STEME Obs,[11]; 30 DAA,100%
same,STEME Obs,[11]; 57 DAA,99%
same,LAMPU Obs,[12]; 7 DAA,55%
same,LAMPU Obs,[12]; 14 DAA,60%
same,LAMPU Obs,[12]; 23 DAA,77%
same,LAMPU Obs,[12]; 30 DAA,79%
same,LAMPU Obs,[12]; 57 DAA,95%
"CCc1cccc(C)c1N(C(=O)CCl)[C@@H](C)COC [S-Metolachlor, S-metolachlor, reference compound]",ZEAMD Obs,"[13]; 14 DAA, 1000 g a.i./ha",10%
same,ZEAMD Obs,"[13]; 28 DAA, 1000 g a.i./ha",8%
same,ZEAMD Obs,"[13]; 62 DAA, 1000 g a.i./ha",0%
"CCNc1nc(Cl)nc(NC(C)C)n1 [Atrazine, atrazine, reference compound]",ABUTH Obs,[14]; [16],15
same,ABUTH Obs,[14]; [17],45
same,ABUTH Obs,[14]; [18],55
same,ABUTH Obs,[14]; [19],62
same,ABUTH Obs,[14]; [20],64
same,ABUTH Obs,[14]; [21],37
same,ABUTH Obs,[14]; [22],78
same,ABUTH Obs,[14]; [23],85
same,ABUTH Obs,[14]; [24],98
same,ABUTH Obs,[14]; [25],99
same,ABUTH Obs,[14]; [26],68
same,ABUTH Obs,[14]; [27],63
same,ABUTH Obs,[14]; [28],87
same,ABUTH Obs,[14]; [29],100
same,ABUTH Obs,[14]; [30],99
"COC(=O)c1nc(C2CC2)nc(N)c1Cl [Compound 2, methyl 6-amino-5-chloro-2-cyclopropyl-4-pyrimidinecarboxylate]",LACSE Obs,[10]; 7 DAA,58%
same,LACSE Obs,[10]; 14 DAA,63%
same,LACSE Obs,[10]; 23 DAA,70%
same,LACSE Obs,[10]; 30 DAA,88%
same,LACSE Obs,[10]; 57 DAA,98%
same,ABUTH Obs,[14]; [16],13
same,ABUTH Obs,[14]; [17],28
same,ABUTH Obs,[14]; [18],45
same,ABUTH Obs,[14]; [19],45
same,ABUTH Obs,[14]; [20],52
same,ABUTH Obs,[14]; [21],13
same,ABUTH Obs,[14]; [22],18
same,ABUTH Obs,[14]; [23],65
same,ABUTH Obs,[14]; [24],63
same,ABUTH Obs,[14]; [25],73
same,ABUTH Obs,[14]; [26],38
same,ABUTH Obs,[14]; [27],55
same,ABUTH Obs,[14]; [28],63
same,ABUTH Obs,[14]; [29],68
same,ABUTH Obs,[14]; [30],78
same,STEME Obs,[11]; 7 DAA,22%
same,STEME Obs,[11]; 14 DAA,13%
same,STEME Obs,[11]; 23 DAA,3%
same,STEME Obs,[11]; 30 DAA,0%
same,STEME Obs,[11]; 57 DAA,0%
same,Postemergence KCHSC Obs,[1]; Cpd 2 alone 16 g a.i./ha,65
same,LAMPU Obs,[12]; 7 DAA,45%
same,LAMPU Obs,[12]; 14 DAA,23%
same,LAMPU Obs,[12]; 23 DAA,58%
same,LAMPU Obs,[12]; 30 DAA,65%
same,Postemergence GALAP Obs,[2]; Cpd 2 alone 4 g a.i./ha,60
same,Postemergence GALAP Obs,[2]; Cpd 2 alone 8 g a.i./ha,72
same,Postemergence GALAP Obs,[2]; Cpd 2 alone 16 g a.i./ha,80
same,HORVW Obs,[3]; in vivo,45
same,ZEAMD Obs,"[13]; hybrid Pioneer 36B10, corn (Zea mays ssp. indentata), in vivo, 62 days after application",0%
same,Postemergence CHEAL Obs,[4]; Cpd 2 alone 16 g a.i./ha,60
same,Postemergence TRZAW Obs,[5]; Cpd 2 alone 4 g a.i./ha,35
same,Postemergence TRZAW Obs,[5]; Cpd 2 alone 8 g a.i./ha,38
same,Postemergence TRZAW Obs,[5]; Cpd 2 alone 16 g a.i./ha,43
same,Postemergence SINAR Obs,[6]; Cpd 2 alone 4 g a.i./ha,43
same,Postemergence SINAR Obs,[6]; Cpd 2 alone 8 g a.i./ha,53
same,Postemergence SINAR Obs,[6]; Cpd 2 alone 16 g a.i./ha,55
same,Postemergence POLCO Obs,[7]; Cpd 2 alone 16 g a.i./ha,70
same,Postemergence KCHSC Obs,[8]; Cpd 2 alone 4 g a.i./ha,53
same,Postemergence KCHSC Obs,[8]; Cpd 2 alone 8 g a.i./ha,60
same,Postemergence KCHSC Obs,[8]; Cpd 2 alone 16 g a.i./ha,70
same,Postemergence VIOAR Obs,[9]; Cpd 2 alone 4 g a.i./ha,60
same,Postemergence VIOAR Obs,[9]; Cpd 2 alone 8 g a.i./ha,63
same,Postemergence VIOAR Obs,[9]; Cpd 2 alone 16 g a.i./ha,72
